Measurements reported in patent US11911386B2, “Methods of treating B-cell proliferative disorder” (BeiGene Switzerland GmbH, priority 2022, dated 2024).
“And” between values parts separate entries of the source, which are not always exact repeats. Equal values may be shown once.

How the values were obtained:
[1] = cited from earlier work
[2] = Phase 2 (NCT04116437): recurrence and change in severity of ibrutinib/acalabrutinib intolerance events on zanubrutinib; format: in vivo, human
Description: The primary endpoints were the recurrence and the change in severity of ibrutinib and acalabrutinib intolerance events compared with corresponding treatment-emergent adverse events within each patient. In this document, the term “adverse event” refers to a “treatment-emergent adverse event” unless otherwise stated. Hereafter, the full “treatment-emergent adverse event” was not used.
Intolerance was defined as an unacceptable toxicity such that treatment should be discontinued per investigator opinion despite optimal supportive care.
If while on zanubrutinib a patient experienced the same adverse event that led to their intolerance to ibrutinib, the patient was said to experience a recurrence of an ibrutinib intolerant event. […] Otherwise, the severity was said to be the same. For acalabrutinib intolerant events, recurrence and change in severity were defined similarly.
Primary endpoint was the recurrence and change in severity of intolerance events per protocol.
The study design comprised two cohorts. […] Patients were not allowed to switch schedule during the study.

C=CC(=O)N1CCC([C@@H]2CCNc3c(C(N)=O)c(-c4ccc(Oc5ccccc5)cc4)nn32)CC1 [zanubrutinib, (S)-7-(1-acryloylpiperidin-4-yl)-2-(4-phenoxyphenyl)-4,5,6,7-tetrahydropyrazolo[1,5-a]pyrimidine-3-carboxamide]
Median Tmax ([1]; oral administration): 2 h | Mean terminal elimination half-life (t1/2) ([1]; patients with B-cell malignancies): 2 to 4 h | Mean t1/2 ([1]; previous clinical DDI study in healthy volunteers): 6.8 h | Patients with acalabrutinib-intolerance event recurrence who discontinued zanubrutinib ([2]; 3 patients): 66.7% | Recurring acalabrutinib-intolerance events at lower severity ([2]; 3 recurring events): 33.3% and 33.0% | Recurring acalabrutinib-intolerance events at same severity ([2]; 3 recurring events): 66.6% and 66.7% | Grade 3 acalabrutinib-intolerance events that recurred ([2]; 4 grade 3 events): 25.0% | Patients without recurrence of acalabrutinib-intolerance events ([2]; 10 patients): 70.0% | Recurring grade 3 ibrutinib-intolerance events at lower severity ([2]; 13 events): 92.3% | Recurring grade 3 ibrutinib-intolerance events at same severity ([2]; 13 events): 7.7% | Acalabrutinib-intolerance events that did not recur ([2]; 18 events): 83.3% | Acalabrutinib-intolerance events that recurred: arthralgia ([2]; 18 events): 5.6% | Acalabrutinib-intolerance events that recurred: myalgia ([2]; 18 events): 11.1% | Patients with recurrent ibrutinib-intolerance event who discontinued zanubrutinib ([2]; 25 patients): 24.0% | Recurring ibrutinib-intolerance events at lower severity ([2]; 34 recurring events): 79.4% | Recurring ibrutinib-intolerance events at same severity ([2]; 34 recurring events): 20.6% | Grade 3 ibrutinib-intolerance events that recurred ([2]; 38 grade 3 events): 34.2% | Patients without recurrence of ibrutinib-intolerance event ([2]; 62 patients): 59.7% | Ibrutinib-intolerance events that did not recur ([2]; 115 events): 70.4% | Intolerance events that did not recur ([2]; 141 intolerance events): 68.1% | Patients with reoccurrence of previously intolerant adverse event(s) ([2]; all patients): 44.4% | Patients without any recurrence of intolerance event(s) ([2]; all patients (clinical study report cut-off)): 56.6% | Median time to first recurrence of ibrutinib-intolerance event ([2]; in vivo): 61 days
